Consider seven compounds from the supplement of paper PMC11061612.

The test system of experiment [1] is CAS-1 (Glioblastoma). The experiment is described as follows: Bliss excess, mean over the matrix (fraction); higher = more synergy. Summed up:
(§1)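 Cell lines in DMEM/F12 or RPMI with 10% FBS were plated in 1536-well plates, held 24 hours at 37°C, 5% CO2, then given two-drug dose matrices for 72 hours (DMSO typically 0.2%). Viability was read by CellTiter-Glo 2.0 luminescence and scaled as inhibition from 0 (vehicle wells) to 1 (blank wells). Combination Emax is the second-highest inhibition in the matrix; Bliss excess is observed combination effect minus expected EA + EB − EA·EB, EA and EB being single-agent effects.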

The test system of experiment [2] is CCK-81 (Colorectal Carcinoma). The description is as above. Summed up:
as §1

Experiment [3] has as its system COLO-824 (Breast Carcinoma). The experiment is described as above. In a few lines: as §1
For experiment [4], the system named is COR-L311 (Small Cell Lung Carcinoma). The experiment is described as above. Summed up: as §1
The test system of experiment [5] is ECC10 (Gastric Carcinoma). The experiment is described as above. Summed up: as §1
A further experiment deals with FU97 (Gastric Carcinoma). Described as above. In a few lines: as §1
In a further experiment the test system is Hs-445 (Non-Cancerous). Described as above. In a few lines:
as §1

The subject of experiment [6] is KARPAS-422 (B-Cell Non-Hodgkin's Lymphoma). Described as above. Summed up: as §1
For experiment [7], the system named is NCI-H1581 (Non-Small Cell Lung Carcinoma). Described as above. Summed up:
as §1

Experiment [8] concerns NCI-H1666 (Lung Adenocarcinoma). The experiment is described as above. In a few lines: as §1
Experiment [9] deals with NCI-H1693 (Lung Adenocarcinoma). Described as above. In a few lines:
as §1

The next experiment concerns NY (Osteosarcoma). Described as above. In a few lines:
as §1

Experiment [10] concerns ONS-76 (Other Solid Carcinomas). The experiment is described as above. In a few lines:
as §1

Experiment [11] concerns OS-RC-2 (Kidney Carcinoma). The description is as above. In a few lines:
as §1

In a further experiment the test system is PA-1 (Ovarian Carcinoma). Described as above. In a few lines: as §1
Experiment [12] has as its system SISO (Cervical Carcinoma). Described as above. In a few lines: as §1
The test system of the next experiment is U-2-OS (Osteosarcoma). The description is as above. Summed up: as §1
The subject of experiment [13] is CAS-1 (Glioblastoma). Kind of experiment: combination Emax (second highest fraction inhibited in the dose matrix, 72 h); higher = more inhibition; extreme values may be limits of the assay. Summed up: as §1
Experiment [14] concerns COLO-824 (Breast Carcinoma). The experiment is described as above. In a few lines:
as §1

Experiment [15] concerns NCI-H2141 (Small Cell Lung Carcinoma). Described as above. In a few lines:
as §1
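For Bliss excess, mean over the matrix in this document: after 72 h of two-drug dosing.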

In the case of `COc1nnc2ccc(N3CCC(c4ccc(OCCN5CCN(C)C(=O)[C@H]5C)cc4)CC3)nn12` [AZD5153] + CCN(CCO)CCCOc1ccc2c(Nc3cc(CC(=O)Nc4cccc(F)c4)[nH]n3)ncnc2c1 [AZD2811] (first compound max 1 µM, 7x7, partner max 1 µM), the Bliss excess is -0.0797 with CAS-1 (Glioblastoma) [1]; -0.0361 in experiment [2]; -0.0422 in [3]; -0.0357 in experiment [4]; -0.103 in experiment [5]; -0.0048 in the experiment with FU97 (Gastric Carcinoma). Further, the Bliss excess in the experiment with Hs-445 (Non-Cancerous) is -0.0783; in experiment [6], -0.0472; in experiment [7], -0.143; in experiment [8], -0.0376; in experiment [9] it was -0.098; in the experiment on NY (Osteosarcoma) it was -0.0314. Moreover, the Bliss excess in experiment [10] is -0.0124; in experiment [11] it was -0.0473; with PA-1 (Ovarian Carcinoma) it was 0.032; in experiment [12], 0.0112; with U-2-OS (Osteosarcoma), -0.0044. The “combination Emax” value in the experiment on CAS-1 (Glioblastoma) [13] worked out at 0.646; in experiment [14], 0.845; in experiment [15] it was 0.297.

Regarding `COc1nnc2ccc(N3CCC(c4ccc(OCCN5CCN(C)C(=O)[C@H]5C)cc4)CC3)nn12` [AZD5153] + C[C@@H]1COCCN1C2=NC(=NC(=C2)C3(CC3)[S@](=N)(=O)C)C4=C5C=CNC5=NC=C4 [AZD6738] (first compound max 1 µM, 7x7, partner max 10 µM), the Bliss excess with CAS-1 (Glioblastoma) [1] is 0.0116; in experiment [2], 0.0184; in experiment [3], 0.0541; in experiment [4] it was -0.0501; in [5] it was 0.0654; in the experiment with FU97 (Gastric Carcinoma) it was 0.0043. The Bliss excess is -0.0475 in the experiment with Hs-445 (Non-Cancerous); -0.0759 in [6]; 0.0013 in experiment [7]; -0.0271 in [8]; -0.0383 in experiment [9]; -0.0188 with NY (Osteosarcoma). Besides, the Bliss excess in experiment [10] is -0.0698; in [11], 0.0699; in the experiment with PA-1 (Ovarian Carcinoma) it was -0.0502; in experiment [12] it was 0.008; in the experiment with U-2-OS (Osteosarcoma), 0.0409. Besides, the “combination Emax” value in the experiment on CAS-1 (Glioblastoma) [13] is 0.712; in [14], 0.869; in [15], 0.578.

Consider `COc1nnc2ccc(N3CCC(c4ccc(OCCN5CCN(C)C(=O)[C@H]5C)cc4)CC3)nn12` [AZD5153] + Cc1c2c(nn1C)CSCc1cc(n(C)n1)CSc1cc(c3ccccc3c1)OCCCc1c(C(=O)O)n(C)c3c-2c(Cl)ccc13 [AZD5991] (first compound max 1 µM, 7x7, partner max 1 µM), for which the Bliss excess was -0.0333 in the experiment with CAS-1 (Glioblastoma) [1]; -0.0485 in experiment [2]; -0.0584 in experiment [3]; -0.0225 in [4]; 0.0743 in experiment [5]; 0.0934 with FU97 (Gastric Carcinoma). Besides, the Bliss excess with Hs-445 (Non-Cancerous) was -0.0723; in experiment [6], -0.0432; in experiment [7] it was -0.0739; in [8], -0.0538; in experiment [9], -0.0418; in the experiment with NY (Osteosarcoma) it was -0.0656. Also, the Bliss excess was -0.0081 in experiment [10]; -0.0106 in experiment [11]; 0.0109 in the experiment on PA-1 (Ovarian Carcinoma); 0.0698 in [12]; 0.0074 in the experiment with U-2-OS (Osteosarcoma). Further, the “combination Emax” value in the experiment with CAS-1 (Glioblastoma) [13] was determined as 0.64; in [14] it was 0.724; in experiment [15], 0.346.

For the compound `COc1nnc2ccc(N3CCC(c4ccc(OCCN5CCN(C)C(=O)[C@H]5C)cc4)CC3)nn12` [AZD5153] + Cn1cnc2c(F)c(Nc3ccc(Br)cc3Cl)c(C(=O)NOCCO)cc21 [Selumetinib] (first compound max 1 µM, 7x7, partner max 10 µM), the Bliss excess in the experiment on CAS-1 (Glioblastoma) [1] was -0.0548; in experiment [2], 0.0649; in experiment [3], 0.007; in experiment [4], -0.0334; in experiment [5] it was 0.0419; in the experiment with FU97 (Gastric Carcinoma), -0.0254. The Bliss excess was -0.0232 with Hs-445 (Non-Cancerous); -0.0311 in experiment [6]; -0.0141 in [7]; -0.0631 in experiment [8]; 0.0093 in [9]; -0.005 in the experiment on NY (Osteosarcoma). Also, the Bliss excess in experiment [10] is -0.0127; in experiment [11], -0.0235; with PA-1 (Ovarian Carcinoma) it was 0.0002; in experiment [12], -0.008; in the experiment with U-2-OS (Osteosarcoma) it was -0.0291. In addition, the “combination Emax” value with CAS-1 (Glioblastoma) [13] stood at 0.599; in [14], 0.694; in experiment [15], 0.276.

`Cc1c2c(nn1C)CSCc1cc(n(C)n1)CSc1cc(c3ccccc3c1)OCCCc1c(C(=O)O)n(C)c3c-2c(Cl)ccc13` [AZD5991] + C1CN(CCC1(C(=O)N[C@@H](CCO)C2=CC=C(C=C2)Cl)N)C3=NC=NC4=C3C=CN4 [Capivasertib] (first compound max 1 µM, 7x7, partner max 3 µM): the Bliss excess was -0.0094 in the experiment on CAS-1 (Glioblastoma) [1]; 0.0555 in experiment [2]; 0.01 in experiment [3]; 0.0059 in experiment [4]; 0.0934 in [5]; -0.0174 with FU97 (Gastric Carcinoma). In addition, the Bliss excess with Hs-445 (Non-Cancerous) was -0.0545; in experiment [6], -0.132; in experiment [7], -0.0048; in [8], 0.0151; in [9], -0.0294; with NY (Osteosarcoma), 0.0079. Besides, the Bliss excess in [10] was -0.0003; in experiment [11], -0.0596; in the experiment with PA-1 (Ovarian Carcinoma) it was 0.0437; in [12], -0.0021; in the experiment with U-2-OS (Osteosarcoma), 0.0114. The figures for the “combination Emax” value (with CAS-1 (Glioblastoma) [13]; in experiment [14]; in experiment [15]) were 0.573, 0.601 and 0.314, respectively.

Regarding `Cc1c2c(nn1C)CSCc1cc(n(C)n1)CSc1cc(c3ccccc3c1)OCCCc1c(C(=O)O)n(C)c3c-2c(Cl)ccc13` [AZD5991] + C=CCn1c(=O)c2cnc(Nc3ccc(N4CCN(C)CC4)cc3)nc2n1-c1cccc(C(C)(C)O)n1 [AZD1775] (first compound max 1 µM, partner max 1 µM), the Bliss excess in the experiment on CAS-1 (Glioblastoma) [1] is 0.0452; in experiment [2] it was -0.0116; in experiment [3] it was -0.0593; in experiment [4] it was -0.0655; in experiment [5], 0.0696; in the experiment on FU97 (Gastric Carcinoma), 0.0503. Also, the Bliss excess is 0.0139 in the experiment on Hs-445 (Non-Cancerous); -0.0192 in experiment [6]; -0.0365 in experiment [7]; 0.0037 in experiment [8]; 0.0581 in experiment [9]; -0.0177 in the experiment on NY (Osteosarcoma). Moreover, the Bliss excess in experiment [10] was -0.0214; in [11], -0.0046; in the experiment on PA-1 (Ovarian Carcinoma), -0.0288; in experiment [12], -0.0417; in the experiment with U-2-OS (Osteosarcoma) it was 0.0183. In addition, the “combination Emax” value in the experiment with CAS-1 (Glioblastoma) [13] amounted to 0.852; in experiment [14], 0.667; in experiment [15], 0.652.

Regarding `Cc1c2c(nn1C)CSCc1cc(n(C)n1)CSc1cc(c3ccccc3c1)OCCCc1c(C(=O)O)n(C)c3c-2c(Cl)ccc13` [AZD5991] + CC1(C)CCC(CN2CCN(c3ccc(C(=O)NS(=O)(=O)c4ccc(NCC5CCOCC5)c([N+](=O)[O-])c4)c(Oc4cnc5[nH]ccc5c4)c3)CC2)=C(c2ccc(Cl)cc2)C1 [Venetoclax] (first compound max 1 µM, 7x7, partner max 1 µM), the Bliss excess was -0.0284 in the experiment on CAS-1 (Glioblastoma) [1]; 0.0362 in experiment [2]; 0.11 in experiment [3]; 0.157 in experiment [4]; 0.277 in [5]; -0.0525 with FU97 (Gastric Carcinoma). The Bliss excess with Hs-445 (Non-Cancerous) was 0.0357; in [6], 0.205; in [7], -0.0061; in [8] it was -0.0478; in experiment [9], -0.025; in the experiment on NY (Osteosarcoma), 0.0232. Besides, the Bliss excess in experiment [10] was -0.0214; in [11], -0.0686; in the experiment on PA-1 (Ovarian Carcinoma) it was 0.0664; in experiment [12], -0.0181; in the experiment on U-2-OS (Osteosarcoma), -0.0011. Besides, the “combination Emax” value with CAS-1 (Glioblastoma) [13] came to 0.286; in experiment [14] it was 0.997; in [15] it was 0.659.
